Laboratory results published in patent publication US8980846B2, “Composition containing styraxlignolide A or the aglycone thereof as an active ingredient for preventing or treating asthma” (Korea Research Institute of Bioscience and Biotechnology, priority 2010, dated 2015).
Like-named read-outs stand apart in the source and are kept apart here.

Assays:
goblet cells = assay: Ratio of goblet cells to bronchial epithelial cells (PAS staining); type: in vivo, Balb/c female mice; details: asthma-induced mice
Procedure: (§1) To prepare bronchial asthma-induced experimental animals, six-week-old Balb/c female mice of mean weight about 20 g were used. After one week of adaptation, individuals which had no observed abnormality on a basic physical examination were targeted. 200 μL of phosphate buffered saline (PBS)(pH 7.4) in which 2 mg of aluminum hydroxide (A8222, Sigma, St. Louis, Mo.) and 20 μg of ovalbumin (A5503, Sigma, St. Louis, Mo.) were suspended was injected into the peritoneal cavity at two-week intervals to result in sensitization. On days 28 to 30 after the first intraperitoneal administration of ovalbumin, inhalation challenge was performed for 30 min with 1% ovalbumin using an ultrasonic atomizer. 24 hours after the last antigen administration, airway hyperresponsiveness was measured. After 24 hours, a lethal dose of pentobarbital (Entobar®, Hanlim Pharm Co., Ltd.) was administered, body weight measurement and bronchotomy were performed, and bronchoalveolar lavage was performed with a total 1.2 mL of physiological saline, and then, samples were collected. […] Eight white mice were used for each group. Experimental groups for homoegonol were a group (hE7.5) in which animals were orally administered with 7.5 mg/kg homoegonol 1 hour prior to ovalbumin inhalation, a group (hE15) in which animals were orally administered with 15 mg/kg homoegonol 1 hour prior to ovalbumin inhalation, and a group (hE30) in which animals were orally administered with 30 mg/kg homoegonol 1 hour prior to ovalbumin inhalation, and five white mice were used for each group.
Lungs removed from each individual were subjected to conventional formalin fixation and paraffin embedding, and permanent section slides of 4 μm thickness were prepared, and periodic acid Schiff (PAS) staining was performed to determine goblet cells. Proliferation of goblet cells was assessed by measuring the ratio of goblet cells to bronchial epithelial cells.
In accordance with the method in <Experimental Example 7-2>, the ratio of goblet cells which were determined by periodic acid-Schiff staining to bronchial epithelial cells were measured to assess proliferation of goblet cells.

ovalbumin-specific IgE = assay: IgE levels in serum and bronchoalveolar lavage fluid (ELISA); type: in vivo, Balb/c female mice; details: asthma-induced mice
Procedure: as §1
To measure serum and bronchoalveolar lavage fluid ovalbumin-specific IgE levels caused by administration of styraxlignolide A, an immunoenzyme technique was used. 20 μg/mL of ovalbumin was dissolved in a 0.1 M NAHCO3 buffer (pH 8.3), and was placed into a 96-well flat bottom ELISA plate to be coated at 4° C. overnight. Non-specific binding was blocked with PBS containing 1% bovine serum albumin, and a serum sample was diluted 1:400 and was allowed to react at room temperature for 2 hours. Then, the plate was washed well, and anti-mouse IgE monoclonal antibody was diluted 1:300 and was allowed to react for 2 hours. Then, HRP-conjugated goat anti-rat IgG polyclonal antibody which was coupled to peroxidase was diluted 1:4000 and was allowed to react at room temperature for 1 hour, and then, was washed. For color development, 3,3′,5,5′-tetramethylbezidine substrate was allowed to react, and the spectroscopic absorbance was measured at 650 nm.
To measure IgE levels which are correlated with severity of asthma to examine the effect of homoegonol on asthma, IgE levels in serum and bronchoalveolar lavage fluid were measured according to the method in <Experimental Example 4>.

[1] = test system: alanine aminotransferase (ALT) and aspartate aminotransferase (AST) in serum; type: in vivo
Procedure: as §1
To examine liver toxicity of styraxlignolide A, a commercially available ELISA kit (BECKMAN Coulter, Inc., Fullerton, Calif., USA) was used to measure alanine aminotransferase (ALT) and aspartate aminotransferase (AST) in serum.

TGF-β1 = TGF-β1 in bronchoalveolar lavage fluid; type: in vivo, Balb/c female mice; details: asthma-induced mice, homoegonol study; 30 mg/kg PO
Procedure: as §1
(§2) To examine the effect of homoegonol on airway remodeling, generation of TGF-β1 and IL-17 in bronchoalveolar lavage fluid was measured.

[2] = Body weight in asthma-induced mice; type: in vivo, Balb/c female mice
Procedure: as §1
(§3) To determine an effect of styraxlignolide A on reduction in body weight in asthma-induced mice, body weight of each mouse prepared in Example 2 was measured. For statistical analyses for all measurements, means and standard errors (mean±S.E.) according to a number of variables were calculated, and comparison between each group was analyzed by performing a Mann-whitney U test using SPSS 10.0. Statically significance was accepted at p<0.05.
as §3, with “homoegonol” for “styraxlignolide A”

[3] = test system: airway hyperresponsiveness; assay: Airway hyperresponsiveness, Penh by one chamber plethysmography after methacholine inhalation; type: in vivo, Balb/c female mice; details: asthma-induced mice; for Penh values: homoegonol study, 30 mg/kg PO
Procedure: as §1, with “Experimental groups for homoegonol were a group (hE7.5) in which animals were orally administered with 7.5 mg/kg homoegonol 1 hour prior to ovalbumin inhalation, a group (hE15) in which animals were orally administered with 15 mg/kg homoegonol 1 hour prior to ovalbumin inhalation, and a group (hE30) in which animals were orally administered with 30 mg/kg homoegonol 1 hour prior to ovalbumin inhalation, and five white mice were used for each group.” left out
The effect of styraxlignolide A on airway hyperresponsiveness caused by asthma occurrence was examined by measuring airway resistance with one chamber plethysmography (All medicus, Seoul, Republic of Korea) and degree of airway resistance was assessed by measuring Penh (enhanced pause) values. The baseline value was measured under a normal respiratory condition, and then, PBS was inhaled using an ultrasonic atomizer for 3 min, and Penh values were measured over 3 min. […] Louis, Mo.) which is used in general methods for diagnosis of bronchial asthma were inhaled and Penh values were measured. Penh value is shown in the following Equation 1, and the resulting Penh value was expressed as a percent increase in Penh after inhalation of each concentration of methacholine. The baseline Penh (saline challenge) was expressed as 100%.
Te: expiratory time (sec), the time from inspiration to the next inspiration
RT: relaxation time, the elapsed time between the beginning of the expiration and the moment when the remaining 30% of the tidal volume has been reached during expiration
PEF: Peak expiration flow
PIF: Peak inspiration flow
To examine the effect of homoegonol on airway hyperresponsiveness caused by asthma occurrence, Penh value was measured according to the method in <Experimental Example 2>.

[4] = test system: inflammatory cells in bronchoalveolar lavage fluid; assay: Inflammatory cell counts in bronchoalveolar lavage fluid (Diff-Quick staining); type: in vivo, Balb/c female mice; details: asthma-induced mice, styraxlignolide A study
IL-17 = IL-17 in bronchoalveolar lavage fluid; type: in vivo, Balb/c female mice; details: asthma-induced mice, homoegonol study; 30 mg/kg PO
Procedure: as §1, §2

[5] = test system: inflammatory cells in bronchoalveolar lavage fluid; assay: Inflammatory cell counts in bronchoalveolar lavage fluid (Diff-Quick staining); type: in vivo, Balb/c female mice; details: asthma-induced mice
Procedure: as §1
Bronchoalveolar lavage fluid was collected from individuals of each experimental group in <Example 2> and right after the collection, fluid was stained with trypan blue. The number of total cells except dead cells was calculated using a hemocytometer. Then, Diff-Quick staining (Sysmex, Swizerland) was performed after smear preparation with Cytospin II, and eosinophils and other inflammatory cells were differentially counted.
To examine the effect of homoegonol on asthma, variation in the numbers of asthma-related inflammatory cells was measured according to the method in <Experimental Example 3>.

reactive oxygen species = assay: Reactive oxygen species generation in bronchoalveolar lavage fluid (2,7-dichlorofluorescein diacetate); type: in vivo, Balb/c female mice; set-up: dose or concentration left out as unconfirmed; details: asthma-induced mice, styraxlignolide A study, 1 hour prior to ovalbumin inhalation
Procedure: To prepare bronchial asthma-induced experimental animals, six-week-old Balb/c female mice of mean weight about 20 g were used. After one week of adaptation, individuals which had no observed abnormality on a basic physical examination were targeted. 200 μL of phosphate buffered saline (PBS)(pH 7.4) in which 2 mg of aluminum hydroxide (A8222, Sigma, St. Louis, Mo.) and 20 μg of ovalbumin (A5503, Sigma, St. Louis, Mo.) were suspended was injected into the peritoneal cavity at two-week intervals to result in sensitization. On days 28 to 30 after the first intraperitoneal administration of ovalbumin, inhalation challenge was performed for 30 min with 1% ovalbumin using an ultrasonic atomizer. 24 hours after the last antigen administration, airway hyperresponsiveness was measured. […]
To measure the amount of generated reactive oxygen species caused by administration of styraxlignolide A, some bronchoalveolar lavage fluid of each individual in <Example 2> was washed with PBS, and 10 μM 2,7-dichlorofluorescein diacetate (35845, Sigma, St. Louis, Mo.) was added thereto and bronchoalveolar lavage fluid was allowed to stand still in a room temperature dark room for 10 min, and the amount of generated reactive oxygen species was measured by a spectrofluorometer (Ex=480 nm, Em=522 nm).

[6] = test system: fibrosis in subsegmental bronchi; assay: Fibrosis in subsegmental bronchi (Masson's trichrome staining); type: in vivo, Balb/c female mice; details: asthma-induced mice, styraxlignolide A study; 1 hour prior to ovalbumin inhalation
Procedure: as §1

[7] = test system: inflammatory cells in the airway mucosa; assay: Inflammatory cell infiltration in airway mucosa, inflammatory index (H&E staining); type: in vivo, Balb/c female mice; details: asthma-induced mice, styraxlignolide A study; 30 mg/kg PO 1 hour prior to ovalbumin inhalation; scale 0-4
[8] = homoegonol study, 30 mg/kg PO, bronchoalveolar lavage fluid
[9] = styraxlignolide A study, 30 mg/kg PO 1 hour prior to ovalbumin inhalation
[10] = homoegonol study, 30 mg/kg PO, bronchoalveolar lavage fluid, 30 mg/kg
[11] = asthma-induced mice, styraxlignolide A study, 30 mg/mL PO 1 hour prior to ovalbumin inhalation

SMILES: CC(C)(O)c1ccccc1CC[C@@H](SCC1(CC(=O)O)CC1)c1cccc(/C=C/c2ccc3ccc(Cl)cc3n2)c1 [Monte, montelukast, reference compound]
- Goblet cells %/bronchial epithelial cell unit (goblet cells; homoegonol study, 30 mg/kg PO, 30 mg/kg): 34.6476±11.5492%
- Total IgE level in bronchoalveolar lavage fluid (ovalbumin-specific IgE; [8]): 104.7447 ± 9.7295 ng/mL
- Total serum IgE level (ovalbumin-specific IgE; homoegonol study, 30 mg/kg PO, serum, Table 2): 16.22 ± 2.6329 µg/mL
- serum ALT ([1]; mouse, in vivo, po, 30 mg/kg): 122.50±14.94 IU/L
- serum AST ([1]; mouse, in vivo, po, 30 mg/kg): 205.00±27.17 IU/L
- TGF-β1 concentrations in bronchoalveolar lavage fluid (TGF-β1): 215.9375 ± 13.4334 pg/mL
- body weight ([2]; homoegonol study, 30 mg/kg PO 1 hour prior to ovalbumin inhalation): 21.08 ± 0.57 g
- body weight [2, 9]: 21.04 ± 0.30 g
- Penh values ([3]; methacholine 0 mg/ml): 0.6071 ± 0.0618
- Penh values ([3]; methacholine 12.5 mg/ml): 1.2979 ± 0.1537
- Penh values ([3]; methacholine 25 mg/ml): 1.4748 ± 0.1639
- Penh values ([3]; methacholine 50 mg/ml): 2.3069 ± 0.4225
- numbers of eosinophils in bronchoalveolar lavage fluid ([4]; 30 mg/kg PO 1 hour prior to ovalbumin inhalation): 60.67±6.58
- IL-17 concentrations in bronchoalveolar lavage fluid (IL-17): 15.8409 ± 2.5686 pg/mL
- Number of cells, Other inflammatory cells [5, 8]: 48.84 ± 3.7377 ×10^3 cells/mouse
- Number of cells, Eosinophils [5, 10]: 19.12±9.17 ×10^3 cells/mouse
- Number of cells, Total inflammatory cells [5, 10]: 67.96±15.0532 ×10^3 cells/mouse
- numbers of total inflammatory cells in bronchoalveolar lavage fluid [5, 9]: 193.29±19.99

SMILES: COc1ccc(-c2cc3cc(CCCO[C@@H]4OC(CO[C@@H]5OC[C@@H](O)C(O)C5O)[C@@H](O)C(O)C4O)cc(OC)c3o2)cc1OC (stereo partly drawn) [styraxlignolide A]
- ratio of goblet cells to bronchiolar epithelial cells (goblet cells; styraxlignolide A study, 1 hour prior to ovalbumin inhalation): 29.52±8.02%
- Ovalbumin-specific IgE level in bronchoalveolar lavage fluid (ovalbumin-specific IgE; styraxlignolide A study, 1 hour prior to ovalbumin inhalation, bronchoalveolar lavage fluid): 15.4 ± 2.18 ng/mL
- serum ovalbumin-specific IgE level (ovalbumin-specific IgE; styraxlignolide A study, 1 hour prior to ovalbumin inhalation, serum, difference to asthma-induced group not significant): 382 ± 60.60 ng/mL
- serum ALT [1, 11]: 168.67±15.56 IU/L
- serum AST [1, 11]: 245.33±12.87 IU/L
- body weight ([2]; styraxlignolide A study, 30 mg/mL PO 1 hour prior to ovalbumin inhalation): 21.04 ± 0.34 g
- Penh (enhanced pause) values compared to the comparative groups ([3]; styraxlignolide A study, 30 mg/mL PO 1 hour prior to ovalbumin inhalation, methacholine 12.5, 25, or 50 mg/mL): reduced Penh values compared to the comparative groups
- generated amount of reactive oxygen species, reduction compared to the asthma-induced group (reactive oxygen species): 27.90%
- numbers of eosinophils in bronchoalveolar lavage fluid ([4]; 30 mg/mL PO 1 hour prior to ovalbumin inhalation): 20.77±2.34
- numbers of total inflammatory cells in bronchoalveolar lavage fluid ([4]; 1 hour prior to ovalbumin inhalation): 147.83±12.61
- area of a fibrosis stained region per 100 μm of a basement membrane perimeter [6]: 495.69±98.62 μm^2
- peribronchiolar inflammatory index [7]: 1.17±0.2
